Laboratory results from article PMC7729398, “Unravelling the intricate cooperativity of subunit gating in P2X2 ion channels” (Scientific Reports, 2020).
Residue numbers refer to the chain shown, from its start.

Key:
P2X2 receptor = molecular target: T1, P2X2 receptor (Rattus norvegicus, UniProt P49653); experiment: whole-cell and single-channel (cell-attached) patch-clamp, fast ATP jumps, global kinetic fit; format: cell-based
T1 construct: gene P2rx2; wild type rat P2X2 in HEK293 (Flp-In T-REx 293) cells
T1 sequence (P49653 1-472): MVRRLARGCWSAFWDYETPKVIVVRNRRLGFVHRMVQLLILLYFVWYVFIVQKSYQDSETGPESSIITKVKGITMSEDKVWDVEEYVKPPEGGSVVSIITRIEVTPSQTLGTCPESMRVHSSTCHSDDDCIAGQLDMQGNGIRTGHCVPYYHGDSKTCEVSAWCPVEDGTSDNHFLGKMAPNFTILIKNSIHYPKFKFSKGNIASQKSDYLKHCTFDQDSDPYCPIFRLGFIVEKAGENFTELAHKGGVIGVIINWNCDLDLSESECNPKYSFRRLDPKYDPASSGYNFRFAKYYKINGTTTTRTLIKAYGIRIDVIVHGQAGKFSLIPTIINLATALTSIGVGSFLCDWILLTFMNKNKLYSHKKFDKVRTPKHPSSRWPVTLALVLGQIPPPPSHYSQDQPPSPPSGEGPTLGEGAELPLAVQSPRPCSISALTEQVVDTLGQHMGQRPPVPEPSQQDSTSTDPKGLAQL

P2X2 receptor H319K = molecular target: T2, P2X2 receptor H319K (Rattus norvegicus, UniProt P49653, H319K); experiment: as above; format: cell-based
T2 construct: gene P2rx2; rat P2X2 H319K in HEK293 (Flp-In T-REx 293) cells
T2 sequence (P49653 1-472 H319K): T1 sequence (P49653 1-472) with H319K

`Nc1ncnc2c1ncn2[C@@H]1O[C@H](COP(=O)(O)OP(=O)(O)OP(=O)(O)O)[C@@H](O)[C@H]1O` [ATP] was tested, and the EC50 (P2X2 receptor) was 1.2 µM and the EC50 (P2X2 receptor H319K) was ~ 30 nM.
